Read-outs that look alike come from different tables or passages of the source.
Experiments:
[1] = biological target: T1, human DiG T-type channels (Homo sapiens, UniProt O43497); test: T-type calcium channel block, whole-cell patch clamp in HEK cell lines; type: cell-based
T1 construct: expressed in transfected cells
Experimental: Standard patch-clamp techniques were employed to identify blockers of T-type currents. Briefly, previously described HEK cell lines stably expressing human DiG T-type channels were used for all the recordings (passage #: 4-20, 37° C., 5% CO2). To obtain T-type currents, plastic dishes containing semi-confluent cells were positioned on the stage of a ZEISS AXIOVERT S100 microscope after replacing the culture medium with external solution (see below). Whole-cell patches were obtained using pipettes (borosilicate glass with filament, O.D.: 1.5 mm, I.D.: 0.86 mm, 10 cm length), fabricated on a SUTTER P-97 puller with resistance values of ˜5 MΩ (see below for internal solution).
In the non-inactivating protocol, the holding potential is set at −110 mV and with a pre-pulse at −100 mV for 1 second prior to the test pulse at −40 mV for 50 ms. […]
Test compounds were dissolved in external solution, 0.1-0.01% DMSO. After ˜10 min rest, they were applied by gravity close to the cell using a WPI microfil tubing. The “non-inactivated” pre-pulse was used to examine the resting block of a compound. The “inactivated” protocol was employed to study voltage-dependent block. However, the initial data shown below were mainly obtained using the non-inactivated protocol only. IC50 values are shown for various compounds of the invention in Table 5.

[2] = test system: SNL rats, tactile allodynia; test: Spinal nerve ligation (SNL) model of neuropathic pain, tactile allodynia (von Frey filaments); type: in vivo; conditions: rat SNL, 30 mg/kg orally in propylene glycol
From the text: (§1) Spinal nerve ligation (SNL) injury was induced using the procedure of Kim and Chung, (Kim, S. H., et al., Pain (1992) 50:355-363) in male Sprague-Dawley rats (Harlan; Indianapolis, Ind.) weighing 200 to 300 grams. Anesthesia was induced with 2% halothane in O2 at 2 L/min and maintained with 0.5% halothane in O2. After surgical preparation of the rats and exposure of the dorsal vertebral column from L4 to S2, the L5 and L6 spinal nerves were tightly ligated distal to the dorsal root ganglion using 4-0 silk suture. The incision was closed, and the animals were allowed to recover for 5 days. […] Sham control rats underwent the same operation and handling as the experimental animals, but without SNL.
The assessment of tactile allodynia consisted of measuring the withdrawal threshold of the paw ipsilateral to the site of nerve injury in response to probing with a series of calibrated von Frey filaments. Each filament was applied perpendicularly to the plantar surface of the ligated paw of rats kept in suspended wire-mesh cages. Measurements were taken before and after administration of drug or vehicle. Withdrawal threshold was determined by sequentially increasing and decreasing the stimulus strength (“up and down” method), analyzed using a Dixon non-parametric test (Chaplan, S. R., et al., J Pharmacol Exp Ther (1994) 269:1117-1123), and expressed as the mean withdrawal threshold.
(§2) Compound 1 was administered orally in propylene glycol solution at a dose of 30 mg/kg. The percent activity was calculated for block of tactile allodynia, thermal hyperalgesia and analgesia.

[3] = test system: SNL rats, thermal hyperalgesia / anti nociception; test: Spinal nerve ligation (SNL) model of neuropathic pain, paw-withdrawal latency to thermal stimulus (Hargreaves); type: in vivo; conditions: rat SNL, 30 mg/kg orally in propylene glycol
From the text: as §1
The method of Hargreaves and colleagues (Hargreaves, K., et al., Pain (1988) 32:77-88) was employed to assess paw-withdrawal latency to a thermal nociceptive stimulus. Rats were allowed to acclimate within a Plexiglas enclosure on a clear glass plate maintained at 30° C. A radiant heat source (i.e., high intensity projector lamp) was activated with a timer and focused onto the plantar surface of the affected paw of nerve-injured or carrageenan-injected rats. Paw-withdrawal latency was determined by a photocell that halted both lamp and timer when the paw was withdrawn. The latency to withdrawal of the paw from the radiant heat source was determined prior to carrageenan or […], 3 hours after carrageenan or 7 days after L5/L6 SNL but before drug and after drug administration. A maximal cut-off of 40 seconds was employed to prevent tissue damage. Paw withdrawal latencies were thus determined to the nearest 0.1 second. Reversal of thermal hyperalgesia was indicated by a return of the paw withdrawal latencies to the pre-treatment baseline latencies (i.e., 21 seconds). Anti nociception was indicated by a significant (p<0.05) increase in paw withdrawal latency above this baseline. Data were converted to % anti hyperalgesia or % anti nociception by the formula: (100×(test latency−baseline latency)/(cut-off−baseline latency) where cut-off was 21 seconds for determining anti hyperalgesia and 40 seconds for determining anti nociception.
as §2

[4] = biological target: T2, rat brain N-type calcium channel subunits (α1B+α2δ+β1b cDNA subunits) (Rattus norvegicus, UniProt Q02294); test: N-type calcium channel block, whole cell patch clamp in HEK 293 cells; type: cell-based; conditions: holding potential −80 mV to +10 mV
T2 construct: expressed in transfected cells
Experimental: N-type calcium channel blocking activity was assayed in human embryonic kidney cells, HEK 293, stably transfected with the rat brain N-type calcium channel subunits (α1B+α2δ+β1b cDNA subunits). Alternatively, N-type calcium channels (α1B+α2δ+β1b cDNA subunits), L-type channels (α1C+α2δ+β1b cDNA subunits) and P/Q-type channels (α1A+α2δ+β1b cDNA subunits) were transiently expressed in HEK 293 cells. Briefly, cells were cultured in Dulbecco's modified eagle medium (DMEM) supplemented with 10% fetal bovine serum, 200 U/ml penicillin and 0.2 mg/ml streptomycin at 37° C. with 5% CO2. At 85% confluency cells were split with 0.25% trypsin/1 mM EDTA and plated at 10% confluency on glass coverslips. At 12 hours the medium was replaced and the cells transiently transfected using a standard calcium phosphate protocol and the appropriate calcium channel cDNA's. Fresh DMEM was supplied and the cells transferred to 28° C./5% CO2. Cells were incubated for 1 to 2 days prior to whole cell recording.
Whole cell patch clamp experiments were performed using an Axopatch 200B amplifier (Axon Instruments, Burlingame, Calif.) linked to a personal computer equipped with pCLAMP software. The external and internal recording solutions contained, respectively, 5 mM BaCl2, 10 mM MgCl2, 10 mM HEPES, 40 mM TEAC1, 10 mM glucose, 87.5 mM CsCl (pH 7.2) and 108 mM CsMS, 4 mM MgCl2, 9 mM EGTA, 9 mM HEPES (pH 7.2). Currents were typically elicited from a holding potential of −80 mV to +10 mV using Clampex software (Axon Instruments). Typically, currents were first elicited with low frequency stimulation (0.067 Hz) and allowed to stabilize prior to application of the compounds. The compounds were then applied during the low frequency pulse trains for two to three minutes to assess tonic block, and subsequently the pulse frequency was increased to 0.2 Hz to assess frequency dependent block. Data were analyzed using Clampfit (Axon Instruments) and SigmaPlot 4.0 (Jandel Scientific).

rat formalin model = test: Formalin-induced pain model (paw flinches); type: in vivo; conditions: 30 mg/kg IP, 10 min before formalin, ±SEM, saline control=100%
Experimental: The effects of intrathecally delivered compounds of the invention on the rat formalin model were measured. The compounds were reconstituted to stock solutions of approximately 10 mg/ml in propylene glycol. Eight Holtzman male rats of 275-375 g size were randomly selected per test article.
The following study groups were used, with test article, vehicle control (propylene glycol) and saline delivered intraperitoneally (IP):
Prior to initiation of drug delivery baseline behavioral and testing data were taken.
On the morning of testing, a small metal band (0.5 g) was loosely placed around the right hind paw. The rat was placed in a cylindrical Plexiglas chamber for adaptation a minimum of 30 minutes. Test Article or Vehicle Control Article was administered 10 minutes prior to formalin injection (50 μl of 5% formalin) into the dorsal surface of the right hind paw of the rat. The animal was then placed into the chamber of the automated formalin apparatus where movement of the formalin injected paw was monitored and the number of paw flinches tallied by minute over the next 60 minutes (Malmberg, A. B., et al., Anesthesiology (1993) 79:270-281).
Results are presented as Maximum Possible Effect ±SEM, where saline control=100%.

[5] = test system: T-type over L-type channels; conditions: literature (Heady et al. 2001); cited from earlier work
[6] = inactivation protocol, @ −80 mV, read-out: IC50 @ −80 mV
[7] = non-inactivating protocol, pre-pulse −100 mV, test pulse −40 mV, read-out: IC50 @ −100 mV
[8] = low frequency stimulation 0.067 Hz (tonic block), read-out: IC50 @ 0.067 Hz
[9] = pulse frequency 0.2 Hz (frequency dependent block), read-out: IC50 @ 0.2 Hz

T1 sequence (O43497 whole entry): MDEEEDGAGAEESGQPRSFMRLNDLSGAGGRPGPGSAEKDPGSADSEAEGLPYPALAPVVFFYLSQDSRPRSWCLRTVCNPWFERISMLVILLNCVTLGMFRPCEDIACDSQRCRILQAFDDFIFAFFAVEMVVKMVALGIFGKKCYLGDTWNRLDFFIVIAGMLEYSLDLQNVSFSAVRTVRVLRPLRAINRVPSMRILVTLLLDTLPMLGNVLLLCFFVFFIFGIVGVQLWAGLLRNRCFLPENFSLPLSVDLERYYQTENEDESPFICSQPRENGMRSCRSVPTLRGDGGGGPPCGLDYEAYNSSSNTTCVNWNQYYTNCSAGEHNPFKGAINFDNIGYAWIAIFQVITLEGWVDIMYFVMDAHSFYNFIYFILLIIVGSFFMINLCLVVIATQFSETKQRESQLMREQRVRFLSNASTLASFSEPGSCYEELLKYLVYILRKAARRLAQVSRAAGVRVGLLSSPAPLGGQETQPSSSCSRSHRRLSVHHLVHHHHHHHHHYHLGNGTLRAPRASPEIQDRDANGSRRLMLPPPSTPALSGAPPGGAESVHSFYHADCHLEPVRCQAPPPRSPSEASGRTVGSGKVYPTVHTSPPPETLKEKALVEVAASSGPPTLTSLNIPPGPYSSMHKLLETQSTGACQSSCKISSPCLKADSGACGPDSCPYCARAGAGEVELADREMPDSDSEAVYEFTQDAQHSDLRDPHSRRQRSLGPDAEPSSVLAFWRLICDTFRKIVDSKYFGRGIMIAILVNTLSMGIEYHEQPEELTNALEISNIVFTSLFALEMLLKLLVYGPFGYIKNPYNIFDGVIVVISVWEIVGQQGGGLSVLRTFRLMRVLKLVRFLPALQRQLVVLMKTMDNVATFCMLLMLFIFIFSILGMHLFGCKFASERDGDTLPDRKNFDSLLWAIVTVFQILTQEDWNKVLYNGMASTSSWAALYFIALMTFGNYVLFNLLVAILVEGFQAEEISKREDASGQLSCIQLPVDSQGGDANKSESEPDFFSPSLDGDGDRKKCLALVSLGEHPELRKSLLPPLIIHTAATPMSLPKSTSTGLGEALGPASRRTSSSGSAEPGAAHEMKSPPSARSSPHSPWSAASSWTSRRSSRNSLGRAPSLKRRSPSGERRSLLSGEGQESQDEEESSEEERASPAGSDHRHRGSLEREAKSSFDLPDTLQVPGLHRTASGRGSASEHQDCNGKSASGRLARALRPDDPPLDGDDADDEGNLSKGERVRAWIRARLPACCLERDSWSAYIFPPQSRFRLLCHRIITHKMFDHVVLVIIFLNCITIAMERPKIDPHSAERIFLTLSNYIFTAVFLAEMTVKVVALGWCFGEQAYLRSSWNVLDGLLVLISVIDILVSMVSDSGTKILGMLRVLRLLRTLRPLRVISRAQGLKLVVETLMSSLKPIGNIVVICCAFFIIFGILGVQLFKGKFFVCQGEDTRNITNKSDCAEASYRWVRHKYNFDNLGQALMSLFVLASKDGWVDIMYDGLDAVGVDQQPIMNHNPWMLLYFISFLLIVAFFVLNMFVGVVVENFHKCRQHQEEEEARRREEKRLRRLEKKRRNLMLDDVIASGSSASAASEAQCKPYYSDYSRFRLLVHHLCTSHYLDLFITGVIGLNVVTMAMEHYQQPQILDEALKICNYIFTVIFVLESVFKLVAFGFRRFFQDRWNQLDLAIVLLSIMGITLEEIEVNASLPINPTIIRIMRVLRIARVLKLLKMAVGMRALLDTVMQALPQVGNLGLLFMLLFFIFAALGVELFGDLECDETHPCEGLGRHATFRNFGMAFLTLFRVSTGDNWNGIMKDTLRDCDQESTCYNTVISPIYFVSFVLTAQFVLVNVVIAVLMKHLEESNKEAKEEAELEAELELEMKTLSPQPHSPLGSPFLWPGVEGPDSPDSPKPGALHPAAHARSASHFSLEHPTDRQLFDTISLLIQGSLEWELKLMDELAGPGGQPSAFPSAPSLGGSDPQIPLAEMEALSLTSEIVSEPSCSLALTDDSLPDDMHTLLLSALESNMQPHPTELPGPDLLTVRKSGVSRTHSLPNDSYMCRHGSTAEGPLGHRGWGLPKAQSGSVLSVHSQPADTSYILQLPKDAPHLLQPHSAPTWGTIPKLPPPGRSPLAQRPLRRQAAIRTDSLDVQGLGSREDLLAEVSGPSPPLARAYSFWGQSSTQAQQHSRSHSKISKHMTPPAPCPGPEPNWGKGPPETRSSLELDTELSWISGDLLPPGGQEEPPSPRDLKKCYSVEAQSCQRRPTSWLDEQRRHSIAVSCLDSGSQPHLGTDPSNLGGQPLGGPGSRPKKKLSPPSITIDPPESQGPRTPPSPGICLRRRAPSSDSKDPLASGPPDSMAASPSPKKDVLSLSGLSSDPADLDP

## O=C(NC(c1ccccc1)c1ccccc1)N1CCN(C(c2ccccc2)c2ccccc2)CC1 [Compound 1, 4-Benzhydryl-piperazine-1-carboxylic acid benzhydryl-amide]
[1]; [6]
  IC50: 231 nM
[1]; [7]
  IC50: 583 nM
[2]; 30 min
  Tactile Allodynia (% Activity): 35.77 ± 10.38 % Activity
[2]; 60 min
  Tactile Allodynia (% Activity): 80.89 ± 13.30 % Activity
[2]; 90 min
  Tactile Allodynia (% Activity): 35.49 ± 9.01 % Activity
[2]; 120 min
  Tactile Allodynia (% Activity): 19.61 ± 6.78 % Activity
[2]; 150 min
  Tactile Allodynia (% Activity): 1.98 ± 1.42 % Activity
[3]; 30 min
  Analgesia (% Activity): 82.47 ± 10.11 % Activity
  Thermal Hyperalgesia (% Activity): 46.98 ± 15.09 % Activity
[3]; 60 min
  Analgesia (% Activity): 88.95 ± 8.30 % Activity
  Thermal Hyperalgesia (% Activity): 97.86 ± 2.14 % Activity
[3]; 90 min
  Analgesia (% Activity): 9.02 ± 5.66 % Activity
  Thermal Hyperalgesia (% Activity): 49.07 ± 10.17 % Activity
[3]; 120 min
  Analgesia (% Activity): 0.00 ± 0.00 % Activity
  Thermal Hyperalgesia (% Activity): 33.36 ± 10.62 % Activity
[4]; [8]
  IC50: 200 nM
[4]; [9]
  IC50: 150 nM
Rat formalin model
  Phase I (% MPE): 58 ± 15 % MPE
  Phase II Total (% MPE): 75 ± 12 % MPE
  Phase IIA (% MPE): 65 ± 12 % MPE
  Phase IIB (% MPE): 99 ± 15 % MPE

## O=C(NC(c1ccccc1)c1ccccc1)N1CCN(C(c2ccccc2)c2ccccc2Cl)CC1 (centres unmarked) [Compound 6, 4-[(2-Chloro-phenyl)-phenyl-methyl]-piperazine-1-carboxylic acid benzhydryl-amide]
[1]; [6]
  IC50: 47 nM
[1]; [7]
  IC50: 147 nM
[4]; [8]
  IC50: 280 nM
[4]; [9]
  IC50: 180 nM
Rat formalin model
  Phase I (% MPE): 53 ± 10 % MPE
  Phase II Total (% MPE): 71 ± 7 % MPE
  Phase IIA (% MPE): 63 ± 9 % MPE
  Phase IIB (% MPE): 99 ± 5 % MPE

## O=C(NC(c1ccccc1)c1ccccc1)N1CCN(C(c2ccccc2)c2cccc(Cl)c2Cl)CC1 (centres unmarked) [Compound 7, 4-[(2,3-Dichloro-phenyl)-phenyl-methyl]-piperazine-1-carboxylic acid benzhydryl-amide]
[1]; [6]
  IC50: 324 nM
[1]; [7]
  IC50: 4200 nM
[4]; [8]
  IC50: 230 nM
[4]; [9]
  IC50: 200 nM
Rat formalin model
  Phase I (% MPE): 61 ± 6 % MPE
  Phase II Total (% MPE): 71 ± 7 % MPE
  Phase IIA (% MPE): 63 ± 9 % MPE
  Phase IIB (% MPE): 85 ± 20 % MPE

## COCC(=O)O[C@]1(CCN(C)CCCc2nc3ccccc3[nH]2)CCc2cc(F)ccc2[C@@H]1C(C)C [Mibefradil]
[5]
  selective for T-type over L-type channels: 10-30 fold
